Here are results for four compounds from patent EP2657347A1, “Electrochemical competitive assay and use thereof” (Université Paris Diderot - Paris 7, priority 2012, dated 2013).

Test [1] has as its target D-Apt49. As to the kind of experiment: Cyclic voltammetry titration of ferrocene-labeled target with aptamer. It counts as binding. The following applies: 5 µM Fc-L-Tym, increasing D-Apt49, Tris buffer pH 7.0; fit of eq 5; also used as predetermined value in competitive fits. As for the experimental part: (§1) All experiments were performed in 5 mM Tris buffer (pH 7) containing 10 mM MgCl2 and 50 mM NaCl (Recognition Buffer, RBr). The L-Tym concentration is always 5 µM. For cyclic voltammetric experiments, 1 µM [Os(bpy)3]2+ with 5 µM 1-Tym in a droplet of 50 µL RBr was used. So, before each experiment, the droplet is shaking with a micropipette. This procedure is repeated until we obtain a reproducible and stable voltammogram. Mother solution of Fc-1-Tym was a […] solution in DMF. This product is conserved at 4°C and seal with parafilm. Before each experiment, this solution is diluted 10 times in stabilized DMF, such as 0.2 µL in 50 µL of RBr leads to 5 µM of Fc-1-Tym.
Cyclic voltammetry measurements were performed with an AUTOLAB PGSTAT 12 potentiostat/galvanostat controlled by computer, and the data were acquired using GPES 4.9007 software (EcoChemie, The Netherlands). […]
The competitive assay can be described by the two equilibrated binding reactions 6a and 6b, in which Fc-L-Tym is L-tyrosinamide labeled by a redox-active ferrocene group. […] Note that under this condition the catalytic oxidation of the phenolic residue is no more possible and only the ferrocene labeled molecule can be detected. […] The value of K^*d was determined by monitoring in CV the reversible response of 5 µM Fc-L-Tym solution as a function of increasing concentrations of D-Apt49. […]

Test [2] relates to L-Apt49. Kind of test: Cyclic voltammetry of ferrocene-labeled target with mirror-image aptamer. It counts as binding. The following applies: not shown.
Test [3] concerns the target D-Apt49. Kind of test: Homogeneous electrochemical competitive binding assay in 20% fetal bovine serum. As for the experimental part:
• Figure 1: Electrochemically competitive assay of the invention. Left-hand column: before the addition of the sample: a first redox signal is measured. Right-hand column: after the addition of a sample containing the target to be detected or measured: a second redox signal is measured. (A) Homogeneous electrochemically competitive assay: the presence of the target disrupts the complex formed between the oligonucleotide ligand and the redox-labeled target. […] (B) Heterologous electrochemically competitive assay, wherein the oligonucleotide ligand is attached to a solid phase: the presence of the target disrupts the complex formed between the oligonucleotide ligand and the redox-labeled target, thereby inducing a better detection of the redox labeled-target. […] (C) Heterologous electrochemically competitive assay, wherein the oligonucleotide ligand is attached to the electrode: the presence of the target disrupts the complex formed between the oligonucleotide ligand and the redox-labeled target, thereby reducing the detection of the redox labeled-target. […] (f) CV of 1 µM [Os(bpy)3]^2+ alone. […] Error bars: standard deviations from 3 measurements. Plain lines: fits of eq 5 to the experimental data. • Figure 3: (A) CVs (v = 0.05 V s^-1) of 5 mM Tris buffer (pH 7.0) containing 50 mM NaCl, 10 mM Mg^2+, 5 µM Fc-L-Tym and (a) 0 µM, (b) 1 µM, (c) 2 µM, (d) 3 µM, (e) 4 µM (f) 5 µM (g) 7.5 µM (h) 10 µM (i) 12.5 µM and (j) 15 µM of D-Apt49. (B) Normalized anodic peak current response as a function of aptamer concentration. Each data is the average of 3 measurements. Error bars are standard deviations. Plain line: fit of eq 5 to the experimental data. • Figure 4: Competitive binding curves performed in (A) 5 mM Tris buffer (pH 7 + 50 mM NaCl + 10 mM MgCl2) or (B) 20% fetal bovine serum (simply diluted with a 4 mM MgCl2 aqueous solution) as a function of (●, ★, ▼, Δ) L-Tym or (○) D-Tym concentration. (*) Assay of 5 µM L-Tym in the presence of 5 mM D-Tym. The Fc-L-Tym concentration was always C^0T*= 5 µM, whereas the D-Apt49 concentrations were C^0R: (●) 3, (★,○,*) 10, (▼) 40 and (Δ) 100 µM.
The enantiospecificity of the assay was next characterized using the same methodology but for solutions containing the D-Tym enantiomer. […] To evaluate the enantiospecific performance of the aptamer, the assay of trace amount of L-Tym in the presence of a large excess of D-Tym was examined and, as reported in Figure 4A, it has been found possible to detect as low as 5 µM L-Tym in the presence of 5 mM D-Tym. This remarkable performance means that as low as 0.1 % of an enantiomeric impurity in a nonracemic mixture can be assayed in a very short analysis time (<1 min). This is competitive with conventional separation techniques, and one order of magnitude lower than the 1% currently attainable by NMR. Finally, the ability to perform an assay under realistic biological conditions was examined. For such purpose, homogenous electrochemical competitive binding assays of 5-fold diluted fetal bovin serum samples spiked with known amounts of […] were then performed (Figure 4B).

Test [4] deals with D-Apt49. Kind of test: Redox-mediated catalytic cyclic voltammetry titration with aptamer. The following applies: specificity / enantioselectivity test, Figure 2B. It counts as binding. As for the experimental part: as §1
(§2) Cyclic voltammetry measurements were performed with an AUTOLAB PGSTAT 12 potentiostat/galvanostat controlled by computer, and the data were acquired using GPES 4.9007 software (EcoChemie, The Netherlands). Small self-contained electrochemical cells made of 3 screen-printed electrodes on a flat substrate were used for all experiments. The electrodes were printed using a DEK model-65 screen-printer. Working electrodes were 4 mm diameter screen-printed carbon electrodes prepared using a commercial carbon ink (Electrodag PF-470 A) deposited on the top of an underlying Ag layer (Electrodag 418 SS). Counter electrode was obtained using an Ag ink (Electrodag 418 SS).
(§3) Before experiments, the screen-printed carbon electrodes were coated with bovine serum albumin (BSA) by immersing the electrodes in a 1 mg/mL BSA solution for 10 minutes at room temperature. The BSA-modified electrodes were next cycled between 0 V and 0.8 V at v = 0.05 V/s, until of the capacitive background current in cyclic voltammetry was stablized.
The 49-mer aptamer we have used (see here above) is a sequence similar to the one that was previously selected by Vianini et al and successfully applied to chromatographic- and fluorescence-based L-Tym assays. Since direct electrochemical oxidation of phenolic compounds generally leads to electrode passivation and thus to poorly reproducible anodic peak current in cyclic voltammetry (CV), the electrochemical detection of L-Tym was performed by redox-mediated catalytic oxidation of the phenolic function. For such a purpose, we have used the one-electron redox mediator couple [Os^III/II(bpy)3]^3+/2+ which, according to its relatively high standard potential (E^0=+0.58 V vs. Ag/AgCl), is capable to efficiently catalyze the oxidation of phenolic compounds. [drawing 51]
The linear dependence of the peak current with both the square root of scan rate, v, and L-Tym concentration, indicates conditions of total catalysis for which the catalytic peak current response, ip, can be expressed by eq 1. ip = 0.609nFSCT^0 sqrt(DT)sqrt(fv/RT) [formula] where n is the number of electron involved in the catalytic reaction, F the Faraday constant, S the electrode area, C^0T the bulk concentration of L-Tym, and DT the diffusion coefficient of L-Tym. After aptamer addition, the binding reaction (eq 2) is rapidly set at equilibrium. [drawing 53] with Kd the dissociation constant. On the basis of a classical law of action mass and mass balance (i.e., C^0T = CT + CRT, with CT and CRT the free and receptor-bound target concentrations), and assuming a 1:1 binding stoichiometry, the free (χƒ) mole fraction of target in the bulk solution can thus be estimated by eq 3. χf = (CT)/(CT^0) = 1-(Kd + CT^0 + CR^0 -sqrt(((Kd+CT^0+CR^0))^2 -4CT^0 CR^0))/(2CT^0) [formula]
Here, C^0R is the total concentration of the aptamer receptor added to the solution. Under the assumption of a slow interconversion of free and bound target on the time scale of CV experiments, the catalytic peak current can thus be expressed by a linear combination of the catalytic currents related to the free and bound target through eq 4. ip = 0.609nFSCT^0 sqrt(fv/RT)[χfsqrt(DT)+(1-χf)sqrt(DRT)] [formula] where DT and DRT are the diffusion coefficients of the free and receptor-bound target, respectively. […]

The target of test [5] is L-Apt49. Kind of test: Redox-mediated catalytic cyclic voltammetry titration with mirror-image aptamer. The following applies: nonlinear fit of eq 5; catalytic peak current, Tris buffer. It counts as binding. Here is the method: as §1
Cyclic voltammetry measurements were performed with an AUTOLAB PGSTAT 12 potentiostat/galvanostat controlled by computer, and the data were acquired using GPES 4.9007 software (EcoChemie, The Netherlands). Small self-contained electrochemical cells made of 3 screen-printed electrodes on a flat substrate were used for all experiments. […]
From the combination of eqs 3 and 5 and knowledge of the catalytic peak currents determined both in the absence of aptamer (ip^0) [formula] and at extrapolated infinite aptamer concentration (ip^(∞)), [formula] we can write eq 5 which allows to predict the normalized peak current response decreases as a function of aptamer and target concentrations. […]

Test [6] deals with D-Apt49. As to the kind of experiment: Homogeneous electrochemical competitive binding assay in Tris buffer. As for the experimental part:
as §1, §2, §3
The competitive assay can be described by the two equilibrated binding reactions 6a and 6b, in which Fc-L-Tym is L-tyrosinamide labeled by a redox-active ferrocene group. The ferrocenyl label was here incorporated on the ―OH position of the phenolic group (Scheme 1). Note that under this condition the catalytic oxidation of the phenolic residue is no more possible and only the ferrocene labeled molecule can be detected. [drawing 63] [drawing 64] with Kd = (CTCR)/CRT [formula] Kd^(*) = (CT^(*)CR)/CRT^(*) [formula] where CR is the concentration of free aptamer receptor. […] Ideally, the two binding constants should be as close as possible (Kd ≈ K^*d). The value of K^*d was determined by monitoring in CV the reversible response of 5 µM Fc-L-Tym solution as a function of increasing concentrations of D-Apt49.
The competitive binding assay was achieved from two separate solutions containing a starting mixture of 5 µM Fc- L-Tym and 3 µM or 10 µM D-Apt49, and to which an increasing amount of L-Tym was added. […]

For `NC(=O)[C@@H](N)Cc1ccc(O[c-]2cccc2)cc1.[Fe+2].c1cc[cH-]c1` [Fc-L-Tym, O-Ferrocenyltyrosynamide], the Kd came out at 1.2 ± 0.4 µM at D-Apt49 [1]; 75 µM on D-Apt49 [3] (5-fold diluted fetal bovine serum, average of the fitted curves, read-out: K^*d (average value)); 75 µM on D-Apt49 [3] (20% fetal bovine serum, 5 µM Fc-L-Tym, 40 µM D-Apt49, read-out: K^*d); 75 µM at D-Apt49 [3] (20% fetal bovine serum, 5 µM Fc-L-Tym, 100 µM D-Apt49, read-out: K^*d). The “current change in the presence of L-Apt49” value in the test on L-Apt49 [2] is “absence of current change”.

With `N[C@@H](Cc1ccc(O)cc1)C(=O)O` [L-tyrosine], the “catalytic current response upon the addition of D-Apta49” value in the test on D-Apt49 [4] is “no significant catalytic current response decrease”.

For the compound `NC(=O)[C@H](N)Cc1ccc(O)cc1` [D-Tym, d-tyrosinamide], the “catalytic current response upon the addition of D-Apta49” value with D-Apt49 [4] is “no significant catalytic current response decrease”. Also, the Kd on L-Apt49 [5] worked out at 3.8 ± 0.7 µM. For the same compound, the “displacement of Fc-L-Tym from D-Apt49” value in the test with D-Apt49 [6] (0-100 µM concentration range, 10 µM D-Apt49, Tris buffer) was “no displacement”. The response change result in the test with D-Apt49 [6] (concentrations as high as few millimolar) is “without significant response change”.

As for `CC(=O)Nc1ccc(O)cc1` [paracetamol], the “catalytic current response upon the addition of D-Apta49” value in the test on D-Apt49 [4] is listed as “no significant catalytic current response decrease”.
